#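 Exposure lasted 48 hours, with cells grown in 96-well plates and compounds tested at five concentrations. The concentration for full growth arrest is given as TGI.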
# Assays:
# Test in all cases: NCI tumour cell line growth inhibition, 48 h
# 786-0 renal = test system: 786-0 renal
# A498 renal = test system: A498 renal
# A549 NSCLC = test system: A549 NSCLC
# ACHN renal = test system: ACHN renal
# BT-549 breast = test system: BT-549 breast
# CAKI-1 renal = test system: CAKI-1 renal
# CCRF-CEM leukemia = test system: CCRF-CEM leukemia
# COLO 205 colon = test system: COLO 205 colon
# DU-145 prostate = test system: DU-145 prostate
# EKVX NSCLC = test system: EKVX NSCLC
# HCC-2998 colon = test system: HCC-2998 colon
# HCT-116 colon = test system: HCT-116 colon
# HCT-15 colon = test system: HCT-15 colon
# HL-60(TB) leukemia = test system: HL-60(TB) leukemia
# HOP-62 NSCLC = test system: HOP-62 NSCLC
# HOP-92 NSCLC = test system: HOP-92 NSCLC
# HS 578T breast = test system: HS 578T breast
# HT29 colon = test system: HT29 colon
# IGROV1 ovarian = test system: IGROV1 ovarian
# KM12 colon = test system: KM12 colon
# LOX IMVI melanoma = test system: LOX IMVI melanoma
# M14 melanoma = test system: M14 melanoma
# MALME-3M melanoma = test system: MALME-3M melanoma
# MCF7 breast = test system: MCF7 breast
# MDA-MB-231 breast = test system: MDA-MB-231 breast
# MDA-MB-435 = test system: MDA-MB-435
# MDA-N = test system: MDA-N
# MOLT-4 leukemia = test system: MOLT-4 leukemia
# NCI-H226 lung = test system: NCI-H226 lung
# NCI-H23 lung = test system: NCI-H23 lung
# NCI-H460 lung = test system: NCI-H460 lung
# NCI-H522 lung = test system: NCI-H522 lung
# NCI/ADR-RES ovarian = test system: NCI/ADR-RES ovarian
# OVCAR-3 ovarian = test system: OVCAR-3 ovarian
# OVCAR-4 ovarian = test system: OVCAR-4 ovarian
# OVCAR-5 ovarian = test system: OVCAR-5 ovarian
# OVCAR-8 ovarian = test system: OVCAR-8 ovarian
# PC-3 prostate = test system: PC-3 prostate
# RPMI-8226 leukemia = test system: RPMI-8226 leukemia
# RXF 393 renal = test system: RXF 393 renal
# SF-268 CNS = test system: SF-268 CNS
# SF-295 CNS = test system: SF-295 CNS
# SF-539 CNS = test system: SF-539 CNS
# SK-MEL-2 melanoma = test system: SK-MEL-2 melanoma
# SK-MEL-28 melanoma = test system: SK-MEL-28 melanoma
# SK-MEL-5 melanoma = test system: SK-MEL-5 melanoma
# SK-OV-3 ovarian = test system: SK-OV-3 ovarian
# SN12C renal = test system: SN12C renal
# SNB-19 CNS = test system: SNB-19 CNS
# SR leukemia = test system: SR leukemia
# SW-620 colon = test system: SW-620 colon
# T-47D breast = test system: T-47D breast
# TK-10 renal = test system: TK-10 renal
# U251 CNS = test system: U251 CNS
# UACC-257 melanoma = test system: UACC-257 melanoma
# UACC-62 melanoma = test system: UACC-62 melanoma
# UO-31 renal = test system: UO-31 renal
smiles,measurement,setting,value
O=C1c2ccc(O)cc2OC(c2cc(O)c(O)c(O)c2)C1O (configuration not stated),TGI,786-0 renal,45.4 µM
same,TGI,A498 renal,73.5 µM
same,TGI,A549 NSCLC,> 100 µM
same,TGI,ACHN renal,48.9 µM
same,TGI,BT-549 breast,48 µM
same,TGI,CAKI-1 renal,> 100 µM
same,TGI,CCRF-CEM leukemia,55.9 µM
same,TGI,COLO 205 colon,83.3 µM
same,TGI,DU-145 prostate,> 100 µM
same,TGI,EKVX NSCLC,39.3 µM
same,TGI,HCC-2998 colon,> 100 µM
same,TGI,HCT-116 colon,41 µM
same,TGI,HCT-15 colon,> 100 µM
same,TGI,HL-60(TB) leukemia,48.4 µM
same,TGI,HOP-62 NSCLC,> 100 µM
same,TGI,HOP-92 NSCLC,> 100 µM
same,TGI,HS 578T breast,> 100 µM
same,TGI,HT29 colon,43.9 µM
same,TGI,IGROV1 ovarian,39.1 µM
same,TGI,KM12 colon,67.1 µM
same,TGI,LOX IMVI melanoma,38.5 µM
same,TGI,M14 melanoma,> 100 µM
same,TGI,MALME-3M melanoma,> 100 µM
same,TGI,MCF7 breast,51.9 µM
same,TGI,MDA-MB-231 breast,39.7 µM
same,TGI,MDA-MB-435,43.2 µM
same,TGI,MDA-N,34 µM
same,TGI,MOLT-4 leukemia,51.7 µM
same,TGI,NCI-H226 lung,> 100 µM
same,TGI,NCI-H23 lung,> 100 µM
same,TGI,NCI-H460 lung,39.5 µM
same,TGI,NCI-H522 lung,58.7 µM
same,TGI,NCI/ADR-RES ovarian,52.9 µM
same,TGI,OVCAR-3 ovarian,> 100 µM
same,TGI,OVCAR-4 ovarian,> 100 µM
same,TGI,OVCAR-5 ovarian,> 100 µM
same,TGI,OVCAR-8 ovarian,38.4 µM
same,TGI,PC-3 prostate,> 100 µM
same,TGI,RPMI-8226 leukemia,48.6 µM
same,TGI,RXF 393 renal,> 100 µM
same,TGI,SF-268 CNS,> 100 µM
same,TGI,SF-295 CNS,39.9 µM
same,TGI,SF-539 CNS,52.7 µM
same,TGI,SK-MEL-2 melanoma,> 100 µM
same,TGI,SK-MEL-28 melanoma,> 100 µM
same,TGI,SK-MEL-5 melanoma,> 100 µM
same,TGI,SK-OV-3 ovarian,> 100 µM
same,TGI,SN12C renal,36.6 µM
same,TGI,SNB-19 CNS,> 100 µM
same,TGI,SR leukemia,56.5 µM
same,TGI,SW-620 colon,70.3 µM
same,TGI,T-47D breast,85.9 µM
same,TGI,TK-10 renal,69.3 µM
same,TGI,U251 CNS,48.7 µM
same,TGI,UACC-257 melanoma,> 100 µM
same,TGI,UACC-62 melanoma,> 100 µM
same,TGI,UO-31 renal,> 100 µM
